ChEMBL document CHEMBL1201862, “PubChem BioAssay data set” (2004)
The source made the active and inactive calls.

Legend:
[1] = luciferase reporter signal suppression in cells – H4 neuroglioma cells, luminescence, dose response (AID 1990); format: functional, cell-based
[2] = luciferase reporter signal reduction – luminescence, H4-C neuroglioblastoma cells, dose response (AID 2458); format: functional, cell-based;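 also: H4 neuroglioblastoma cells stably carrying a luciferase reporter gene fusion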
cells [3] = format: functional, cell-based
[4] = Luminescence Cell-Based Dose Response HTS to Identify Inhibitors of 5'UTR Stem-Loop Driven Prion Protein mRNA Translation in H4 Neuroglioblastoma Cells. [Related pubchem assays: 1827 (Project Summary), 1813 (Primary HTS)]; format: functional
[5] = alpha-synuclein stem-loop luciferase translation blockers – H4 neuroglioma cells, luminescence, confirmation (AID 1988); format: functional, cell-based
[6] = alpha-synuclein stem-loop translation blockers – luminescence, H4 neuroglioblastoma cells, dose confirmation, confirmation (AID 2454); format: functional, cell-based;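 also: H4 neuroglioblastoma cells carrying an alpha-synuclein 5'UTR luciferase reporter; potency for inhibition of the luciferase signal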
[7] = HEK-293T viability loss after treatment – luminescence, T-cell screen hits, cytotoxicity control for TCR NF-kB inhibitor project, dose response (AID 489026); format: functional, cell-based;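 also: cells exposed to compound about 14 hours before the viability readout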
[8] = THP-1 cell cytotoxicity, dose response, cytotoxicity control for non-replicating M. tuberculosis project (AID 489025); format: functional
[9] = Luminescence Cell-Based Dose Retest to Confirm Inhibitors of Cancer Stem Cells. [Related pubchem assays (depositor defined):AID2717, AID2721]; format: functional; conditions: Homo sapiens
[10] = HepG2 cell cytotoxicity, dose response, cytotoxicity control for non-replicating M. tuberculosis project (AID 489018); format: functional; conditions: Mycobacterium tuberculosis
cells [11] = format: functional
[12] = viability loss in THP-1 monocytes – THP-1 cells, cytotoxicity control for Vif-APOBEC3G degradation inhibitor project, dose response (AID 1117359); format: functional; conditions: THP-1
SUMO-activating enzyme = SUMO-activating enzyme (Homo sapiens, UniProt Q9UBT2); assay: blockers of UBC9-mediated SUMO conjugation – biochemical, AlphaScreen, SUMOylation inhibitor project, confirmation (AID 2018); format: functional
BJ [13] = assay: BJ-TERT fibroblast viability loss – cell-based, RAS-independent, luminescence, dose response (AID 1933); format: functional; conditions: Homo sapiens
BJ [14] = assay: cells; format: functional, cell-based; conditions: Homo sapiens
BJ [15] = assay: BJ-TERT-LT-ST fibroblast viability loss – cell-based, RAS-independent, luminescence, dose response (AID 1935); format: functional; conditions: Homo sapiens;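 also: BJ fibroblasts immortalized with TERT plus LT and ST oncogenes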
[16] = DRD fibroblast viability loss – cell-based, non-viral oncogenic, luminescence, dose response (AID 1934); format: functional; conditions: Homo sapiens
BJ [17] = assay: growth inhibition of engineered Ras-driven BJ cells – cell-based, alamar blue fluorescence, cherrypicked samples, dose response (AID 2631); format: functional; conditions: Homo sapiens;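 also: confirmatory dose-response assay in RAS-dependent BJ fibroblasts engineered with TERT, LT and ST, with cytotoxicity read by fluorescence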
[18] = molecular target: Intestinal-type alkaline phosphatase (Mus musculus, UniProt P24822); assay: PubChem AID 488785; format: functional
[19] = molecular target: T1, Alkaline phosphatase, tissue-nonspecific isozyme (Homo sapiens, UniProt P05186); assay: TNAP enzyme inhibition by screening hits, dose response, selectivity assay for mouse IAP inhibitor project, biochemical, human TNAP, uHTS hits (AID 488906); format: functional
T1 sequence (P05186 whole entry): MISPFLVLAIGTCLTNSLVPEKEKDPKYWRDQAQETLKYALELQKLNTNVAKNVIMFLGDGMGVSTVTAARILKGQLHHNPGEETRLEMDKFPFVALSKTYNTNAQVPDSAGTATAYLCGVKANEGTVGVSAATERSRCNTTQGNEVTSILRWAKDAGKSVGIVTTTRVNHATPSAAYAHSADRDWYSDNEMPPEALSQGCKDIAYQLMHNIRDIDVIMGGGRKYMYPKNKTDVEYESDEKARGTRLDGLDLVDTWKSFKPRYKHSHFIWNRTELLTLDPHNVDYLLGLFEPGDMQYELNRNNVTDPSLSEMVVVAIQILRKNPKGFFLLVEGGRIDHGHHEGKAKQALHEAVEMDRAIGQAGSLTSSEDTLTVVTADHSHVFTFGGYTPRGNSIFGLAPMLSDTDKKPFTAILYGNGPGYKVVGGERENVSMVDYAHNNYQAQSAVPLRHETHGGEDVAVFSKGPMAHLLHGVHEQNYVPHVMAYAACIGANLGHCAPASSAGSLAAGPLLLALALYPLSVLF

[20] = molecular target: Intestinal-type alkaline phosphatase (Homo sapiens, UniProt P09923); assay: inhibition of human intestinal alkaline phosphatase – biochemical, dose response (AID 488876); format: functional
[21] = molecular target: DNA dC->dU-editing enzyme APOBEC-3G (Homo sapiens, UniProt Q9HC16); assay: Dose Response confirmation of small molecule APOBEC3G DNA Deaminase Inhibitors via a fluorescence-based single-stranded DNA deaminase assay. [Related pubchem assays (depositor defined):AID493012, AID493028]; format: functional
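For AC50 in this document: cells exposed to compound for roughly 70 hours or longer before luminescence read.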

Sequence of SUMO-activating enzyme (Q9UBE0 whole entry): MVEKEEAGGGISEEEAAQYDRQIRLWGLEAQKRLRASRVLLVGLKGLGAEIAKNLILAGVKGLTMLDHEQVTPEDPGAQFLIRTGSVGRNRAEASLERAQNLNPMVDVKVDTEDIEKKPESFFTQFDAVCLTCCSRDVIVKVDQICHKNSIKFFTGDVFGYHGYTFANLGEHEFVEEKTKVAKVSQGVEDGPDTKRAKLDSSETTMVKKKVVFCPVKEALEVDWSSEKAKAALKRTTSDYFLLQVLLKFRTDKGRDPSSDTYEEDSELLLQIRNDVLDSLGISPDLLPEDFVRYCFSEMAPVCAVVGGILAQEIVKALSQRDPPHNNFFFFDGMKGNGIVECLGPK
Sequence of SUMO-activating enzyme (Q9UBT2 whole entry): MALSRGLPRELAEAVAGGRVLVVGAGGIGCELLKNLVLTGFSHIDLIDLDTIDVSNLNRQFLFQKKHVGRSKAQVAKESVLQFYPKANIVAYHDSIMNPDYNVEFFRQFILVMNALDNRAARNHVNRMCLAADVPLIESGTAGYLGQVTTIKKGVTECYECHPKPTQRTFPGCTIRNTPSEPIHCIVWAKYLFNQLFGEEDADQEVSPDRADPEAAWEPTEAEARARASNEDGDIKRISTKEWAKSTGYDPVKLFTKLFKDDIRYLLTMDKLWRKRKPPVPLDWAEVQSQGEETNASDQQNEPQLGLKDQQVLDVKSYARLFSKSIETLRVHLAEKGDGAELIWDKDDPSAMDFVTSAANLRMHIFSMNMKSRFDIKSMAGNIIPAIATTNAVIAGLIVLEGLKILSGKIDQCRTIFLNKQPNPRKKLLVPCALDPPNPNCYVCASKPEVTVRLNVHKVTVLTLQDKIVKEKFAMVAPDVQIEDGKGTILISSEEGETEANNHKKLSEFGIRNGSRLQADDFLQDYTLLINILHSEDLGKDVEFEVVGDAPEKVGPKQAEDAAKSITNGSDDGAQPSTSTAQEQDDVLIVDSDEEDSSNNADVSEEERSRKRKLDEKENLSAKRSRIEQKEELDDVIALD
Sequence of DNA dC->dU-editing enzyme APOBEC-3G (Q9HC16 whole entry): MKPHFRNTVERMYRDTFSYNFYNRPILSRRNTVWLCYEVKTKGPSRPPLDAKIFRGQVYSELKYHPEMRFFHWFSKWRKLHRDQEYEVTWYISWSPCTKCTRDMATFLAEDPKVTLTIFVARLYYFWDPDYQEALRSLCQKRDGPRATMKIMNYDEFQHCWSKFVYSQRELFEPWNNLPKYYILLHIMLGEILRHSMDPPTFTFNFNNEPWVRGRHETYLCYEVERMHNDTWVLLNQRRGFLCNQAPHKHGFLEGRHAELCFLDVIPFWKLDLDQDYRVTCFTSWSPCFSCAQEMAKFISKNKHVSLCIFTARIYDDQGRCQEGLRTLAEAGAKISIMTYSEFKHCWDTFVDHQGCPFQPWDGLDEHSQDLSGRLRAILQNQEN
Sequence of Intestinal-type alkaline phosphatase (Mus musculus, UniProt P24822) (P24822 whole entry): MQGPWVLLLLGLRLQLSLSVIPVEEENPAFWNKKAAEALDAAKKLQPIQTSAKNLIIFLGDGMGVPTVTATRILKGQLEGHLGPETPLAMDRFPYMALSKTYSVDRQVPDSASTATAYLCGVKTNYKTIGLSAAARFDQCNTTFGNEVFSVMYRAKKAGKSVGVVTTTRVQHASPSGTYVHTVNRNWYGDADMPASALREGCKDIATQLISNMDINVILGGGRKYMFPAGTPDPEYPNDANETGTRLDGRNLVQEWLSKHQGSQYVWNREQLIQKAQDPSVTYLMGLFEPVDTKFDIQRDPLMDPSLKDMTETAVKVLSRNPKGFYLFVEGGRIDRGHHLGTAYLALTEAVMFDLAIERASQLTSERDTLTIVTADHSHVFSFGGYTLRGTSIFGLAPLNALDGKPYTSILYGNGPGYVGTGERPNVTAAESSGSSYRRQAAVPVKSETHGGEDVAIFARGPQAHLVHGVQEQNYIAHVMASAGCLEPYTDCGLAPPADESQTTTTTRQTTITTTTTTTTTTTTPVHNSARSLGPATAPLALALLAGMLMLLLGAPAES
Sequence of Intestinal-type alkaline phosphatase (Homo sapiens, UniProt P09923) (P09923 whole entry): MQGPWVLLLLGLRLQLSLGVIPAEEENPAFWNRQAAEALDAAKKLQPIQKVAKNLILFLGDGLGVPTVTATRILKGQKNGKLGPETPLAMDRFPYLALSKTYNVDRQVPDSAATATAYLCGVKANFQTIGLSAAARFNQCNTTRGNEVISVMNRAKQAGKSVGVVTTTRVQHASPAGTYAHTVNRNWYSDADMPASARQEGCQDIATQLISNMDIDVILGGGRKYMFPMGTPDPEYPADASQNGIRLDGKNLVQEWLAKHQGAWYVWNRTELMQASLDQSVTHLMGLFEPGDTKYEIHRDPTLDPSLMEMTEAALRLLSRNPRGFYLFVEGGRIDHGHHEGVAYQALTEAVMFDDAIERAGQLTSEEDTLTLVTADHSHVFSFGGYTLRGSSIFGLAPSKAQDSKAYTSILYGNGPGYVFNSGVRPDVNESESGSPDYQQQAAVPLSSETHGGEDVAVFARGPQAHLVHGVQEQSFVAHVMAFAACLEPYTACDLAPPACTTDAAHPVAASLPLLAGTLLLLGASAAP

SMILES: Cc1cc(NC(=O)CSc2nc3ccccc3c(=O)n2C2CCCC2)no1
- EC50 [1]: 4.73 µM (inconclusive)
- EC50 [2]: 1.5 µM (active)
- EC50 (cells [3]): > 12 µM (not active)
- EC50 [4]: < 100 nM (active)
- EC50 [5]: < 100 nM (active)
- EC50 [6]: 1.89 µM (inconclusive)
- IC50 [7]: > 80 µM (inactive)

SMILES: CCC(C)NCCOc1ccc(C(C)(C)c2ccccc2)cc1 (stereo unspecified)
- CC50 [8]: 27.6 µM (active)
- AC50 [9]: 1.63 µM (active)
- CC50 [10]: 19.5 µM (active)
- IC50 (cells [11]): 11.7 µM (active)

SMILES: O=C(CCCN1C(=O)/C(=C\c2ccco2)SC1=S)Nc1cccc2ccccc12
- CC50 [12]: 29 µM (active)

SMILES: CCOC(=O)c1c(NC(=O)CCN2CCOCC2)sc(C)c1-c1ccccc1
- CC50 [12]: > 40 µM (active)

SMILES: O=C(Nc1ccncc1)C1CCN(S(=O)(=O)c2c(Cl)cccc2Cl)CC1
- CC50 [12]: > 40 µM (active)

SMILES: O=C1N(c2ccc(Cl)c(Cl)c2)CN(Cc2ccccc2)CN1n1cnnc1
- IC50 (SUMO-activating enzyme): > 100 µM (inactive)

SMILES: COc1ccccc1N1CCN(C(=O)c2cc(=O)c3cc(C)cc(C)c3o2)CC1
- EC50 [1]: 0.101 µM (active)
- EC50 [2]: 0.289 µM (active)
- EC50 (BJ [13]): 346 nM (active)
- EC50 (cells [3]): 0.415 µM (active)
- EC50 [4]: 127 nM (active)
- EC50 [5]: < 100 nM (active)
- EC50 (BJ [14]): 938 nM (active)
- EC50 (BJ [15]): 229 nM (inconclusive)
- EC50 [16]: 375 nM (active)
- EC50 [6]: 0.259 µM (active)
- IC50 [7]: > 80 µM (inactive)
- EC50 (BJ [17]): < 104 nM (active)

SMILES: COc1ccc(C2CC(c3ccccc3Cl)=NN2c2ccc(S(N)(=O)=O)cc2)cc1 (stereo unspecified)
- IC50 [18]: 6.02 µM (active)
- IC50 [19]: > 100 µM (inactive)
- IC50 [20]: > 100 µM (inactive)

SMILES: O=C(Cc1ccc(Cl)cc1Cl)Nc1cccc(S(=O)(=O)Nc2ccccc2F)c1
- IC50 [21]: 29.4 µM (active)
